Data as given in patent US20260144805A1, “CANNABIDIOL COMPOSITIONS FOR USE IN THE TREATMENT OF NEURODEGENERATIVE AND NEUROLOGICAL DISORDERS” (JAZZ PHARMACEUTICALS RESEARCH UK LIMITED, priority 2022, published 2026).

Key:
Assay type in all cases: in vivo
rat VPA model [1] = test: Irritability-like behaviour: bottle brush test in rat VPA model, juvenile P30 and adult (Example 5; DS = DS-E); conditions: risperidone 0.125 mg/kg
Description: (§1) Time-mated female Wistar rats were administered a single dose of valproic acid (VPA, 600 mg/kg, i.p.) on gestational day 12.5. Male offspring were delivered and confirmation of the VPA induced developmental deficit was rapidly achieved by examination of characteristic “tail kinks” in the juvenile animals. The timeline of experiments is outlined in FIG. 8 and animals were randomly allocated to treatment groups (Table O).
(§2) Control animals were administered sterile saline (0.9% w/v, i.p.) in utero and the vehicle control (ethanol: Kolliphor HS15: saline (1:1:18, v/v/v), i.p.
To test irritability-like behavior we employed the bottle-brush test modified for rats (Riittinen et al. 1986 Dev Psychobiol 19:105-111). Irritability-like behavior was examined by measuring aggressive and defensive responses during the bottle-brush test carried out in juvenile animals immediately after play behavior evaluation at P30 and again in adult animals on P59. Irritability-like behavior testing was performed under dark conditions with a red light and infrared camera recording. Testing consisted of 10 trials per rat in plastic cages (377×325×170 mm) with fresh bedding. During each trial, the rat was placed at the back of the cage. A bottle-brush was rotated toward the animal's whiskers (from the front of the cage). The brush was rotated around the whiskers of the rat for approximately 1 second. The brush was then rotated back to the front of the cage where it hangs vertically for approximately 2 seconds, during which behavioural responses were recorded. An intertrial interval of 10 second was used.
Employing video analysis of the test, the following were scored as aggressive responses: smelling the brush, biting the brush (during the initial phase of rotating the brush forward and back to the starting position), boxing the target, following the brush, exploring the brush (using paws or mouth to manipulate the brush without biting or boxing), mounting the brush, and delayed biting (during the 2 s that the brush hung at the starting position). Additionally, the following were scored as defensive responses: escaping from the brush, digging, burying, jumping, climbing, vocalization, freezing, and grooming. Frequency of each response and the sum of aggressive and defensive behaviours were recorded.
(§3) All data was assessed for outliers (ROUT; Prism V9.02) and then normality using D'Agostino and Pearson normality test for n=8, or Shapiro-Wilks test for n<8 or unequal groups. Data that were non-normally distributed were analysed using Kruskal-Wallis followed by planned comparisons with Dunn's correction. Normally distributed data were analysed using one-way ANOVA or two-way ANOVA followed by planned comparisons with Sidak's correction. […] Statistical significance was defined as p<0.05 using Prism 9.0.2 software for analysis.

rat VPA model [2] = test: Direct social interaction and social play P30 in rat VPA model (Example 5; DS = DS-E)
Description: as §1, §2
At postnatal day 30 and following 8 days treatment with the test compounds, animals were evaluated for juvenile play behavior. […] Animals were first allowed to individually explore the arena for 10-minute acclimatization trial (P29) and 24 hours later evaluated for social play (P30). On day of evaluation animals were scored for play activity measured by pinning (latency to, total duration and frequency), mounting (latency to, total duration and frequency) and latency, frequency and duration of social play behavior (following or approaching test partner, sniffing or social grooming). […]
All data was assessed for outliers (ROUT; Prism V9.02) and then normality using D'Agostino and Pearson normality test for n=8, or Shapiro-Wilks test for n<8 or unequal groups. […]

rat VPA model [3] = test: Open field test (locomotor activity, circling, grooming, centre zone) P56-57 in rat VPA model (Example 5; DS = DS-E); conditions: adult, risperidone 0.125 mg/kg
Description: as §1, §2
Animals were scored for locomotor activity and exploratory behavior in a two 10-minute trials within an open field arena over two days. Each day the animals were placed into a […] black Perspex box with 30 cm side walls, under low light and monitored via remote video capture for spontaneous activity. Linked to Ethovision XT image analysis software this was analysed for total distance moved and number and duration of center zone crossings. Manual scoring of the videos was then conducted (blinded to treatment group) to determine frequency of circling behavior (number of 360 degree turns) and time spent grooming.
as §3

rat VPA model [4] = test: Marble burying test P58 in rat VPA model (Example 5; DS = DS-E); conditions: adult P58, risperidone 0.125 mg/kg
Description: as §1, §2
The marble burying test has been employed as an animal model of anxiety and impulsive behavior. […] Over a 10-minute test period animals were allowed to freely explore the apparatus and subsequently removed whereupon marbles covered by at least one half with bedding were considered buried and this number was recorded and was the main outcome measure for this behavior. Video recording of the test period was evaluated for locomotor activity and scored for frequency and duration of digging behavior.
as §3

[5] = system: valproic acid-induced autism spectrum disorder (ASD) mouse model; test: Valproic acid-induced ASD model, autism-like behaviors, DS vs sCBD and risperidone (Example 6, Table P); set-up: key to Adult open field hyperactivity (spontaneous LMA on day 1) / Adult open field hyperactivity (LMA on day 2) / Adult marble burying / Adult grooming / Juvenile vocalisation: +: improvement; Ø: no change; −: not tested; conditions: 0.125 mg/kg I.P.
Description: (§4) The main objective of the following study was to assess the effect of the drug substance (DS) of Example 1 in ameliorating autism-like behavior in valproic acid-induced autism spectrum disorder (ASD) mouse model (FIGS. 19A-B).

[6] = system: valproic acid-induced autism spectrum disorder (ASD) mouse model; test: Valproic acid-induced ASD model, social behavior (Example 6, Table P); set-up: key: +: improvement; Ø: no change; −: not tested; conditions: 0.125 mg/kg I.P.
Description: as §4

[7] = system: valproic acid-induced autism spectrum disorder (ASD) mouse model; test: Valproic acid-induced ASD model, bottle-brush test (irritability) (Example 6, Table P); set-up: key: +: improvement; Ø: no change; −: not tested; conditions: 0.125 mg/kg I.P.
Description: as §4

[8] = juvenile P30, 8 days, vs VPA/VEH

SMILES: Cc1nc2n(c(=O)c1CCN1CCC(c3noc4cc(F)ccc34)CC1)CCCC2 [Risperidone]
- defensive behaviours, bottle brush (rat VPA model [1]; adult): no significant effect
- aggressive behaviour, bottle brush (rat VPA model [1]; adult, all days of assessment): significantly reduced
- irritability score, bottle brush (rat VPA model [1]; adult, all four assessment days): significantly reduced
- aggressive responses, bottle brush (rat VPA model [1]; [8]): significantly reduced
- irritability score (aggressive + defensive), bottle brush (rat VPA model [1]; [8]): no effect
- Social duration and frequency behaviours (rat VPA model [2]; juvenile P30, risperidone 0.125 mg/kg): no effect
- any measure of play or social interaction (rat VPA model [2]; juvenile animals, Risperidone 0.125 mg/kg): without effect
- grooming behaviour (rat VPA model [3]; day 1): significantly reduced
- frequency of centre zone crossings (rat VPA model [3]; day 1, vs VPA/Veh): significant decrease
- circling behaviour (rat VPA model [3]; day 2): significantly reversed
- grooming behaviour (rat VPA model [3]; day 2): significantly reduced
- number of centre zone crossings (rat VPA model [3]; day 2): significantly reduced
- time spent in the centre zone (rat VPA model [3]; day 2): significantly reduced
- increase in locomotor activity (distance travelled) (rat VPA model [3]; day one): significantly prevented
- time spent in the centre zone (rat VPA model [3]; day one): significantly reduced
- increase in locomotor activity (distance travelled) (rat VPA model [3]; day two): significantly prevented
- VPA-induced digging behaviour (rat VPA model [4]): significantly reduced
- number of marbles buried (rat VPA model [4]): no significant effect
- number of marbles buried (rat VPA model [4]; listed as risperidone): significantly reduced
- Adult grooming ([5]; control beside DS): +
- Adult marble burying ([5]; control beside DS): +
- Adult open field hyperactivity (LMA on day 2) ([5]; control beside DS): +
- Adult open field hyperactivity (spontaneous LMA on day 1) ([5]; control beside DS): +
- Adult grooming ([5]; control beside sCBD): +
- Adult marble burying ([5]; control beside sCBD): +
- Adult open field hyperactivity (LMA on day 2) ([5]; control beside sCBD): +
- Adult open field hyperactivity (spontaneous LMA on day 1) ([5]; control beside sCBD): +
- Adult marble burying ([5]; control beside sCBD-2): +
- Adult open field hyperactivity (LMA on day 2) ([5]; control beside sCBD-2): Ø
- Adult open field hyperactivity (spontaneous LMA on day 1) ([5]; control beside sCBD-2): +
- Adult active social behavior ([6]; control beside DS): Ø
- Juvenile play behavior ([6]; control beside DS): Ø
- Adult active social behavior ([6]; control beside sCBD): +
- Juvenile play behavior ([6]; control beside sCBD): +
- Adult active social behavior ([6]; control beside sCBD-2): Ø
- Juvenile play behavior ([6]; control beside sCBD-2): Ø
- Adult bottle brush irritability test ([7]; control beside DS): +
- Juvenile bottle brush irritability test ([7]; control beside DS): Ø
- Adult bottle brush irritability test ([7]; control beside sCBD): +
- Juvenile bottle brush irritability test ([7]; control beside sCBD): +
- Adult bottle brush irritability test ([7]; control beside sCBD-2): +
- Juvenile bottle brush irritability test ([7]; control beside sCBD-2): +
